Laboratory results published in paper PMC11943016, “TBG096 Ameliorates Memory Deficiency in AD Mouse Model via Promoting Neurogenesis and Regulation of Hsc70/HK2/PKM2/LAMP2A Signaling Pathway” (International Journal of Molecular Sciences, 2025).
Where two headings read alike, the source gives them in different places.

Experiments:
[1] = Pharmacokinetic analysis of plasma in SD rats; type: in vivo; settings: female, Sprague-Dawley, rat; for half-life: 14 mg/kg
Experimental: In the pharmacokinetic analysis, a total of 23 female SD rats aged 8 weeks from Zhejiang Academy of Medical Sciences (Hangzhou, China) (permit number: ZJU20240191) were used. A total of 15 rats were randomly divided into the following groups: (i) control group, (ii) TBG096 (14 mg/kg) oral administration group, and (iii) TBG096 (14 mg/kg) intravenous administration group. TBG096 was administered orally (dissolved in soybean oil) or intravenously (dissolved in Milli-Q water containing 2% Tween 80 and 5% ethanol) at 14 mg/kg after 12 h of fasting. Then, the blood from the posterior ocular venous plexus of rats was taken at 5, 15, 30, 60, 90, 120, 180, and 240 min after administration. A total of eight rats were randomly divided into two groups for taking brain samples: (i) control group and (ii) TBG096 (14 mg/kg) oral administration group.
The collected blood was placed in a centrifuge tube (containing 20 µL heparin sodium solution) and centrifuged at 3000 rpm for 10 min to obtain a supernatant (plasma). Brain samples were collected after the oral administration of 14 mg/kg TBG096 and heart perfusion with PBS. Then, 10 µL of 10% formic acid and 10 µL of internal standard (10 ng/µL) were added to 200 µL of plasma (compound 2 was used as internal standard) or 0.2 g of brain sample (compound 4 was used as internal standard) and vortexed for 10 s and then left at −80 °C overnight. Next, 600 µL or 3 mL of extraction solvent (isopropanol) was added to plasma or brain samples, vortexed for 5 min, left at −30 °C for 2 h, and then centrifuged at 12,000 rpm for 15 min. Next, the upper organic phase was transferred to another tube, centrifuged, and concentrated to dryness. The residue was dissolved in 100 µL of mobile phase, vortexed for 0.5 min, and centrifuged at 12,000 rpm for 3 min, and the supernatant was then prepared for HPLC analysis (Supersil Phenyl 5 µm (4.6 × 200 mm), elution with MeCN/H2O containing 0.1% formic acid (plasma samples: 57% MeCN/H2O, brain samples: 56% MeCN/H2O) for 30 min, flow rate: 1 mL/min, sample size: 20 µL, detected at 284 nm) and HR ESI-TOF-MS analysis.

[2] = system: Wnt gene family (Wnt10b, Wnt5a, and Wnt1); test: Transcriptome sequencing and qRT-PCR of brain samples of HFD-induced AD mice; type: in vivo; settings: GSEA-GO, qRT-PCR confirmed Wnt10b and Wnt5a
Experimental: Total RNA was extracted and quantified from 50 mg of the cerebral cortex using TRIzol reagent (Invitrogen, Carlsbad, CA, USA) and NanoDrop (Thermo Fisher Scientific, Waltham, MA, USA), respectively. Subsequently, 2.5 µg of RNA from each sample was reverse-transcribed using a HiFi-MMLV cDNA kit (Cowin Biotechnology Company, Beijing, China). Transcripts were quantified by PCR analysis performed with a CFX 96 Touch (Bio-Rad, Hercules, CA, USA) and SYBR Premixed EX Taq (Takara, Otsu, Japan). PCR was performed under the following conditions: 95 °C for 2 min, followed by 40 cycles, 94 °C for 15 s, 60 °C for 25 s, and 72 °C for 10 s. All results were normalized to the level of 18S RNA, and the relative mRNA transcription levels were estimated by 2^−ΔΔCT. The number of animal samples in each group was five, and all samples were run in triplicate, and their average values were calculated. The mouse primers of Wnt10b (NM_011718.2), Wnt5a (NM_001256224.2), and 18S RNA (NR_003278.3) were synthesized by Sangon Biotech Co., Ltd. (Shanghai, China), and their sequences are as follows: Wnt10b-sense: 5′-[…]-3′; antisense: 5′-[…]-3′. Wnt5a-sense: 5′-[…]-3′; antisense: 5′-[…]-3′. 18S-sense: 5′-[…]-3; antisense: 5′-[…]-3′.
After extracting total RNA (5 µg) from cerebral cortex samples, mRNA was purified using Dynabeads Oligo(dT) (Thermo Fisher, Waltham, MA, USA), involving two purification steps. […]

## O=C(SCCCCCCSCCCC(F)(F)F)c1cccc(O)c1O [TBG096]
[1]; 14 mg/kg oral vs i.v., rats, read-out: absolute (oral) bioavailability
  bioavailability: 36%
[1]; iv, i.v. 14 mg/kg, rats, read-out: T1/2z
  half-life: 44.4 min
[1]; iv, i.v. 14 mg/kg, rats
  AUC(0-inf): 2520 ng·h/mL
  AUC(0-t): 2470 ng·h/mL
  Cmax: 4700 ng/mL
  Tmax: 5 min
[1]; oral (i.g.) 14 mg/kg, rats
  AUC(0-inf): 905 ng·h/mL
  AUC(0-t): 707 ng·h/mL
  Cmax: 700 ng/mL
  Tmax: 15 min
[1]; po, oral (i.g.) 14 mg/kg, rats, read-out: T1/2z (oral elimination half-life)
  half-life: 111 min
[1]; po, oral, as restated in Discussion, read-out: half-life (converted)
  half-life: 111 min
[2]
  expression of the Wnt gene family (Wnt10b, Wnt5a, and Wnt1): enhancing the expression
